Results reported in patent US20160175308A1, “THERAPEUTIC AGENTS FOR MODULATING THYMIC FUNCTION AND/OR GROWTH AND/OR TREATING VARIOUS DISORDERS” (UCL BUSINESS PLC, priority 2013, published 2016).

What was measured:
Type in all cases: in vivo, mouse
C57/BI6N wildtype mice [1] = experiment: Lapatinib treatment of geriatric mice: thymus size/weight; settings: 18 month old mice, 2.5 mg/day lapatinib oral gavage 5x/week for 5 weeks vs DMSO control, n=10/group, p<0.05
C57/BI6N wildtype mice [2] = experiment: Lapatinib treatment of geriatric mice: thymus histology and BrdU immunohistochemistry; settings: lapatinib vs control
Protocol: Eighteen month old C57/BI6N wildtype mice used in Lapatinib studies were purchased from Charles River Laboratories (UK). All mice were housed on a 12 hour light/dark cycle, in individually ventilated cages with access to standard rodent diet (Harlan, UK) and tap water ad libitum. Mice were euthanized by intraperitoneal injection of 0.2 mL sodium pentobarbital (Euthatal, Merial Animal Health, UK).
(§1) Dox was administered ad libitum in a foil-wrapped standard drinking bottle; fresh Dox was given every 48 hours. 300 mg Lapatinib (#J62401, Alfa Aesar, USA) was prepared in 12 mL DMSO (#472301, Sigma, UK) at a final concentration of 25 mg/mL. Mice were given 2.5 mg (100 µL) Lapatinib or an equivalent dose of DMSO alone 5 times per week for 4 weeks by oral gavage. One hour prior to euthanasia all mice for subsequent histological analysis were injected with 150 μL of 10 mg/mL BrdU solution (Invitrogen, UK) to label proliferating cells.
All cell suspensions (thymus, lymph node, blood) were diluted to 1 million cells/mL for antibody staining and flow cytometry analysis. Antibodies for flow cytometry analysis were as follows: CD3-FITC (17a2, Invitrogen, UK), CD4-PE (I3t4, BD Pharmingen, UK), CD8a-Q605 (53-6.7, eBioscience, UK), CD19-A421 (6D5, Biolegend, UK), CD11b-A421 (eBioscience, UK), Ter119-A421 (TER119, eBioscience, UK), CD47-APC780 (1M7, eBioscience, UK), CD25-A660 (7D4, eBioscience, UK), Nk1.1-APC780 (PK136, eBioscience, UK), NkP46-a660 (29a1.4, eBioscience, UK). All antibodies were diluted to 2 μL/10̂6 cells in 1 mL final volume; unstained and single antibody stained controls were used to set all voltage and gate compensations. Antibody staining was for 30 minutes at 4 degrees Celsius, after which time cells were centrifuged at 1250 rpm for 5 minutes and cell pellets resuspended in 1 mL RPMI 1640. All flow cytometry analysis was performed on either an LSR2 or LSR Fortessa flow cytometry system. A minimum of 10,000 events was collected for each analysis (phenotype, T cell developmental stage, peripheral blood and lymph node cell analysis). […]

C57/BI6N wildtype mice [3] = experiment: Lapatinib treatment of elderly mice: thymus cell counts and flow cytometry of T lymphocyte populations; settings: n=5/group
Protocol: […] All mice were housed on a 12 hour light/dark cycle, in individually ventilated cages with access to standard rodent diet (Harlan, UK) and tap water ad libitum. Mice were euthanized by intraperitoneal injection of 0.2 mL sodium pentobarbital (Euthatal, Merial Animal Health, UK).
as §1
Thymus and lymph nodes were prepared for flow cytometry by incubation in a 2 mL solution of RPMI […] (Invitrogen, UK) containing Liberase TL (0.3 mg/mL; Roche, Germany) plus DNAse I (0.2 mg/ml, Roche, Germany) for 30 minutes at 37 degrees Celsius. Thymus and lymph node tissue was then macerated through a […] filter (BD, USA) and enzymes inactivated by further washing with 30 mL PBS (Invitrogen, UK) plus 5 mM EDTA (Sigma, UK). This single cell suspension was centrifuged for 5 minutes at 1250 rpm, the supernatant removed, and the cell pellet resuspended in 3 mL RPMI 1640 (lymph nodes) or 5 mL RPMI 1640 (thymus). Total cell counts were obtained using a Millicell automated hematocytometer. Blood cells were prepared for flow cytometry by direct blood collection from the descending aorta in a capillary Microvette tube containing EDTA (CB 300 K2E, Sarstedt, Germany), elimination of red blood cells using lysis buffer (R7757, Sigma, UK) and dilution in 30 mL RPMI 1640. Blood cells were then pelleted by centrifugation as above and resuspended in 20 mL RPMI 1640 and cell counts obtained using a Millicell automated hematocytometer.
All cell suspensions (thymus, lymph node, blood) were diluted to 1 million cells/mL for antibody staining and flow cytometry analysis. Antibodies for flow cytometry analysis were as follows: CD3-FITC (17a2, Invitrogen, UK), CD4-PE (I3t4, BD Pharmingen, UK), CD8a-Q605 (53-6.7, eBioscience, UK), CD19-A421 (6D5, Biolegend, UK), CD11b-A421 (eBioscience, UK), Ter119-A421 (TER119, eBioscience, UK), CD47-APC780 (1M7, eBioscience, UK), CD25-A660 (7D4, eBioscience, UK), Nk1.1-APC780 (PK136, eBioscience, UK), NkP46-a660 (29a1.4, eBioscience, UK). All antibodies were diluted to 2 μL/10̂6 cells in 1 mL final volume; unstained and single antibody stained controls were used to set all voltage and gate compensations. Antibody staining was for 30 minutes at 4 degrees Celsius, after which time cells were centrifuged at 1250 rpm for 5 minutes and cell pellets resuspended in 1 mL RPMI 1640. All flow cytometry analysis was performed on either an LSR2 or LSR Fortessa flow cytometry system. A minimum of 10,000 events was collected for each analysis (phenotype, T cell developmental stage, peripheral blood and lymph node cell analysis). All experiments represent at least an n=4 for each condition and all analyses were done using FlowJo software. Thymus tissue sections were prepared for BrdU immunohistochemistry by dewaxing using an automated tissue staining system (TissueTek), blocking for 1 hour at room temperature in blocking solution (PBS containing 10% fetal bovine serum (10270-106, Invitrogen, UK) plus fish skin gelatin (G7765, Sigma, UK)). A BrdU primary antibody (rat, Covance, UK) was diluted in blocking solution and slides were incubated overnight in this antibody solution at 4 degrees Celsius. Slides were then washed in PBS and an anti-rat Alexa 555 secondary antibody (Invitrogen, UK) was applied in blocking solution for 3 hours at room temperature, washed, and slides coverslipped using Mowiol mounting media.

[4] = 15-18 month old mice vs DMSO treated controls
[5] = 15 month old mice, CD4/CD8/lineage negative thymocytes, vs DMSO

SMILES: CS(=O)(=O)CCNCc1ccc(-c2ccc3ncnc(Nc4ccc(OCc5cccc(F)c5)c(Cl)c4)c3c2)o1 [Lapatinib, N-[3-chloro-4-[(3-fluorophenyl)methoxy]phenyl]-6-[5-[(2-methylsulfonylethylamino)methyl]-2-furyl]quinazolin-4-amine]
- thymus size / thymus weight (C57/BI6N wildtype mice [1]): increase thymus weight
- thymus size / thymus weight (C57/BI6N wildtype mice [1]; listed as lapatinib): increases thymus size
- BrdU cell abundance (thymocyte proliferation) (C57/BI6N wildtype mice [2]; BrdU staining, n=5/treatment type, p<0.05): statistically significant increase in thymocyte proliferation
- thymus histological appearance (cortico-medullary boundaries) (C57/BI6N wildtype mice [2]; H&E sections): restored thymic cortico-medullary boundaries and improved overall thymus histological appearance
- thymus involution (C57/BI6N wildtype mice [2]; elderly mice): reverses thymus involution
- CD4 T cell production (C57/BI6N wildtype mice [3]; [4]): trend towards increased
- CD8 T cell production (C57/BI6N wildtype mice [3]; [4]): trend towards increased
- DN-T T cell production (C57/BI6N wildtype mice [3]; [4]): trend towards increased
- production of immature (double positive, DP-T) T lymphocytes (C57/BI6N wildtype mice [3]; [4]): increases production
- thymus cell abundance (C57/BI6N wildtype mice [3]; [4]): increased thymus cell abundance
- DN1 (CD44+/CD25−) immature T cell abundance (C57/BI6N wildtype mice [3]; [5]): significantly reduced
- DN2 (CD44+/CD25+) immature T cell abundance (C57/BI6N wildtype mice [3]; [5]): significantly reduced
- DN4 (CD44/CD25 negative) cell abundance (C57/BI6N wildtype mice [3]; [5]): increased
